Columns and labels:
[1] = test system: NO production in stimulated human monocytes; experiment: NO production in stimulated human monocytes in vitro (FIG. 3); assay type: cell-based
[2] = test system: hydrogen peroxide (H2O2) production; experiment: Hydrogen peroxide production; conditions: low concentrations relevant for the respiratory air and therapeutic range
[3] = test system: patients with persistent bronchial asthma (GINA II); experiment: Clinical add-on therapy with oral 1,8-cineol, persistent bronchial asthma GINA II, 10 patients; assay type: in vivo, human
Description: 10 patients 56 to 72 years of age with persistent bronchial asthma (GINA II) treated with a combination therapy of inhalative glucocorticoid (beclometasone, 2×200 μg/day by inhalation) and inhalative long-acting beta-2-sympathomimetics (LABA, salmeterol) and also oral theophyllin were given 1,8-cineol (Soledum® capsules) 4×200 mg/day orally for one week. Even after a one-week therapy at the dose mentioned above, in 8 of the 10 subjects a slight to moderate improvement of lung function was achieved. After continuing therapy for a further twelve weeks, the persistent bronchial asthma had stabilized to such an extent that in 7 of the 10 patients the inhalative glucocorticoid required could be reduced by up to 60% and in 2 of the 10 patients the inhalative glucocorticoids could be discontinued altogether at times. […] In 5 of the patients treated, the betamimetics required, too, could be reduced by up to 40%.

[4] = test system: superoxide production (O2^− production) of normal human monocytes; experiment: PMA-stimulated superoxide production (INT-formazan) of normal human monocytes in vitro; assay type: cell-based; conditions: for INT-Formazan: PMA, 20 hours; for O2^− production: FIG. 3
[5] = test system: smokers with COPD (GOLD II to III); experiment: Placebo-controlled double-blind study of additional therapy with 1,8-cineol in smokers with COPD; assay type: in vivo, human
Description: In a placebo-controlled double-blind study, the effect of an additional therapy with 1,8-cineol in the form of capsules which dissolve in the small intestine (Soledum® capsules, 3×200 mg/day, oral) on exacerbation rate and lung function was examined in 3 winter months of two successive years using 242 smokers with COPD (GOLD II to III).

[6] = test system: superoxide dismutases (SOD); experiment: Superoxide dismutase activity
[7] = test system: IL-1beta production in LPS-stimulated human monocytes; experiment: LPS-stimulated production of IL-1beta in human monocytes in vitro (ELISA); assay type: cell-based
From the text: 1,8-Cineol intensifies in particular the action of subtherapeutic concentrations of beclometasone which are relevant for the peripheral respiratory tract.

[8] = test system: production of IL-8 in ex-vivo stimulated peripheral human monocytes; experiment: IL-8 production in ex-vivo stimulated peripheral monocytes of former smokers under additional therapy; assay type: cell-based; conditions: long-term additional therapy with 1,8-cineol plus ICS-based therapy
Description: From these patients, monocytes were obtained during ongoing therapy with ICS and incubated in vitro with a topical glucocorticoid in a dose-dependent manner.

[9] = test system: patients with persistent bronchial asthma (GINA III); experiment: Clinical add-on therapy with oral 1,8-cineol, persistent bronchial asthma GINA III, 12 patients; assay type: in vivo, human
From the text: Even after a one-week therapy at the dose mentioned above, in 9 of the 12 subjects a slight to moderate improvement of lung function was achieved. After continuing therapy for a further twelve weeks, the persistent bronchial asthma had stabilized to such an extent that in 9 of the 12 patients the inhalative glucocorticoid required could be reduced by up to 30%.

[10] = test system: FCS-stimulated production of superoxides (O2^−) in normal human monocytes; experiment: FCS-stimulated superoxide production of normal human monocytes in vitro (INT-formazan); assay type: cell-based; conditions: for INT-Formazan / O2^−: FCS 10%; for INT-Formazan / Comparison to control (%): Table 4 series
Description: As already described, monocytes were isolated from 50 ml of venous blood which was repeatedly donated voluntarily for the experiments by healthy non-smoking subjects (n=4). […] To this end, the active compounds were incubated together with freshly isolated monocytes (10^5/ml) and the FCS stimulus (10%, from Sigma) for 20 hours in a cell culture medium (RPMI-1640, from Sigma). […] The determination of the cytosolic superoxide production is based on the reduction of the dye p-iodonitrotetrazolium violet (INTV), which reacts specifically with superoxide ions, to iodonitrotetrazolium formazan (formazan). INTV is taken up by the cells into the cytosol. Intracellularly, the nitrogen cycle of the INTV is reduced by free superoxide radicals, giving rise to a water-soluble intermediate and the water-insoluble formazan, which have their absorption maxima at 505 and 490 nm, respectively. […] At the end of an experiment, the cell lysate is (after treatment with hydrochloric acid) measured at 492 nm in a photometer. Here, the absorption of light is proportional to the amount of intracellularly accumulated INT-formazan which can then be determined using a formazan calibration curve. The INT-formazan accumulation for its part is determined as a measure for the intracellular production of superoxide.

[11] = therapeutic range of 1,8-cineol
[12] = 4×200 mg/day orally, after one week, add-on to beclometasone, salmeterol, theophyllin
[13] = 1,8-cineol 6 × 10^−6 mol/l (0.9 μg/ml), Table 6 series

`CC12CCC(CC1)C(C)(C)O2` [1,8-cineol, 1,3,3-trimethyl-2-oxabicyclo-[2.2.2]-octane] was tested, and the “production of NO” value ([1]; subtherapeutic concentrations (0.15 μg/ml=10^−6 mol/l)) was “inhibit the production of NO”, the “production of NO” value [1, 11] was “stimulating effects on the production of NO” and the “production of H2O2” value [2] was “inhibited the production of O2^− radicals and H2O2”. For the same compound, the tolerability ([3]; 4×200 mg/day orally) was “tolerated well, without any side-effects”, the “patients in whom the inhalative glucocorticoid required could be reduced” value ([3]; 4×200 mg/day orally, after a further twelve weeks) was 7 of the 10 and the “subjects with a slight to moderate improvement of lung function” value [3, 12] was 8 of the 10. The “patients in whom the inhalative glucocorticoids could be discontinued altogether at times” value ([3]; after a further twelve weeks) was 2 of the 10, the “reduction of the betamimetics required” value ([3]; after a further twelve weeks) was “up to 40%” and the “reduction of the inhalative glucocorticoid (ICS dose) required” value ([3]; long-term therapy with oral 1,8-cineol, one plus twelve weeks) was “up to 60%”. The “patients in whom the betamimetics required could be reduced” value ([3]; of 10 patients treated) was 5, the “Comparison with control (%)” value ([4]; 0.0015 μg/ml (10^−8 mol/l)) was “+27.6 ± 4%” and the INT-Formazan ([4]; 0.0015 μg/ml (10^−8 mol/l)) was 5.364 ± 229 nmol/10^5. The “Comparison with control (%)” value ([4]; 0.015 μg/ml (10^−7 mol/l)) was “+24.5 ± 6%”, the INT-Formazan ([4]; 0.015 μg/ml (10^−7 mol/l)) was 5235 ± 341 nmol/10^5 and the “Comparison with control (%)” value ([4]; 0.15 μg/ml (10^−6 mol/l)) was “+26.7 ± 7%”. The INT-Formazan ([4]; 0.15 μg/ml (10^−6 mol/l)) was 5327 ± 360 nmol/10^5, the “Comparison with control (%)” value ([4]; 0.3 μg/ml (2 × 10^−6 mol/l)) was “+31.8 ± 6%” and the INT-Formazan ([4]; 0.3 μg/ml (2 × 10^−6 mol/l)) was 5540 ± 359 nmol/10^5. The “Comparison with control (%)” value ([4]; 0.6 μg/ml (4 × 10^−6 mol/l)) was “+43.8 ± 9%”, the INT-Formazan ([4]; 0.6 μg/ml (4 × 10^−6 mol/l)) was 6045 ± 534 nmol/10^5 and the “Comparison with control (%)” value ([4]; 0.9 μg/ml (6 × 10^−6 mol/l)) was “+45.3 ± 7%”. For the same compound, the INT-Formazan ([4]; 0.9 μg/ml (6 × 10^−6 mol/l)) was 6107 ± 437 nmol/10^5, the “Comparison with control (%)” value ([4]; 1.2 μg/ml (8 × 10^−6 mol/l)) was −2.5 ± 6% and the INT-Formazan ([4]; 1.2 μg/ml (8 × 10^−6 mol/l)) was 4099 ± 234 nmol/10^5. The “Comparison with control (%)” value ([4]; 1.5 μg/ml (10^−5 mol/l)) was −42 ± 16%, the INT-Formazan ([4]; 1.5 μg/ml (10^−5 mol/l)) was 2438 ± 389 nmol/10^5 and the “Comparison with control (%)” value ([4]; 3 μg/ml (2 × 10^−5 mol/l)) was −84.9 ± 22%. For the same compound, the INT-Formazan ([4]; 3 μg/ml (2 × 10^−5 mol/l)) was 634 ± 139 nmol/10^5, the “O2^− production” value ([4]; low concentrations of 1,8-cineol) was “slightly induce O2^− production” and the “O2^− production” value [4, 11] was “inhibited strongly”. For the same compound, the “St. George's Respiratory Questionnaire (SGRQ), change in the verum group” value ([5]; 3×200 mg/day, oral) was −10.4 units, the “lung function (FEV1), change in the verum group” value ([5]; 3×200 mg/day, oral) was “+5.1%” and the “reduction in the exacerbation rate compared to the placebo group” value ([5]; 3×200 mg/day, oral, 3 winter months of two successive years, 242 smokers) was −38.5%. For the same compound, the “further reduction of the frequency of exacerbations beyond known combined therapies” value ([5]; additional therapy with capsules which dissolve in the small intestine) was 25%, the superoxide dismutase activity [6] was “partially inhibited” and the “production of IL-1beta, change” value ([7]; 1,8-cineol on its own, 10^−6 mol/l, FIG. 1) was −32%. The “Effect vs. control Inhibition (%)” value ([7]; cineol 10^−6 mol/l) was 32.4±17%, the “Effect vs. cineol 10^−6 mol/l Inhibition (%)” value ([7]; cineol 10^−6 mol/l (the reference itself)) was 0 ± 17% and the IL-1beta ([7]; cineol 10^−6 mol/l, LPS, 20 hours) was 3548 ± 600 Pg/5 × 10^4 cells. The “Effect vs. control Inhibition (%)” value ([7]; cineol 10^−6 mol/l, listed as cineol) was 32.4 ± 17%, the “LPS-stimulated production of IL1-beta compared to the LPS control” value ([7]; therapeutically relevant concentrations of 1,8-cineol, FIG. 2, p<0.01) was “inhibited by therapeutically relevant concentrations of 1,8-cineol in a dose-dependent manner and significantly” and the “production of IL-8 compared to normal monocytes of nonsmokers” value [8] was “increased production of IL-8”. For the same compound, the tolerability ([9]; 4×200 mg/day orally) was “tolerated well, without any side-effects”, the “subjects with a slight to moderate improvement of lung function” value [9, 12] was 9 of the 12 and the “patients in whom the inhalative glucocorticoid required could be reduced” value ([9]; after a further twelve weeks) was 9 of the 12. The “reduction of the betamimetics required” value ([9]; after a further twelve weeks) was “up to 25%”, the “reduction of the inhalative glucocorticoid required” value ([9]; after a further twelve weeks) was “up to 30%” and the “patients in whom the betamimetics required could be reduced” value ([9]; of 12 patients treated) was 4. The INT-Formazan ([10]; 0.000015 μg/ml (10^−10 mol/l)) was 21360 ± 1766 nmol/10^5, the “Comparison to control (%)” value ([10]; 0.000015 μg/ml (10^−10 mol/l)) was −0.7 ± 8% and the INT-Formazan ([10]; 0.00015 μg/ml (10^−9 mol/l)) was 21329 ± 1920 nmol/10^5. The “Comparison to control (%)” value ([10]; 0.00015 μg/ml (10^−9 mol/l)) was −0.8 ± 9%, the INT-Formazan ([10]; 0.0015 μg/ml (10^−8 mol/l)) was 21946 ± 1858 nmol/10^5 and the “Comparison to control (%)” value ([10]; 0.0015 μg/ml (10^−8 mol/l)) was 2 ± 8%. The INT-Formazan ([10]; 0.015 μg/ml (10^−7 mol/l)) was 21899 ± 1879 nmol/10^5, the “Comparison to control (%)” value ([10]; 0.015 μg/ml (10^−7 mol/l)) was 1.8 ± 8% and the INT-Formazan ([10]; 0.15 μg/ml (10^−6 mol/l)) was 22286 ± 2036 nmol/10^5. For the same compound, the “Comparison to control (%)” value ([10]; 0.15 μg/ml (10^−6 mol/l)) was 3.6 ± 9%, the INT-Formazan ([10]; 0.3 μg/ml (2 × 10^−6 mol/l)) was 21499 ± 1959 nmol/10^5 and the “Comparison to control (%)” value ([10]; 0.3 μg/ml (2 × 10^−6 mol/l)) was 0.04 ± 9%. The INT-Formazan ([10]; 0.6 μg/ml (4 × 10^−6 mol/l)) was 17240 ± 1637 nmol/10^5, the “Comparison to control (%)” value ([10]; 0.6 μg/ml (4 × 10^−6 mol/l)) was −19.8 ± 9% and the INT-Formazan ([10]; 0.9 μg/ml (6 × 10^−6 mol/l)) was 12341 ± 1061 nmol/10^5. For the same compound, the “Comparison to control (%)” value ([10]; 0.9 μg/ml (6 × 10^−6 mol/l)) was −42.6±8%, the “Comparison to control (%)” value ([10]; 0.9 μg/ml (6 × 10^−6 mol/l), listed as 1,8-Cineol) was −42.6 ± 8% and the INT-Formazan ([10]; 1.2 μg/ml (8 × 10^−6 mol/l)) was 10086 ± 701 nmol/10^5. For the same compound, the “Comparison to control (%)” value ([10]; 1.2 μg/ml (8 × 10^−6 mol/l)) was −53.1 ± 7%, the INT-Formazan ([10]; 1.5 μg/ml (10^−5 mol/l)) was 10202 ± 915 nmol/10^5 and the “Comparison to control (%)” value ([10]; 1.5 μg/ml (10^−5 mol/l)) was −52.6 ± 9%. For the same compound, the “O2^−” value ([10]; 1,8-cineol 4 × 10^−6 mol/l (0.6 μg/ml), Table 5 series) was 16323 ± 1069 nmol/mL, the “O2^−” value [10, 13] was 9347 ± 494 nmol/mL and the Percent of control [10, 13] was −50.2±5%. For the same compound, the “lowest antioxidatively active concentration” value ([10]; FCS-stimulated O2^− production) was 6e-06 mol/L and the “inhibition of the production of O2^− radicals” value ([10]; therapeutically relevant concentrations of 1,8-cineol, summary) was “about 50%”.

From patent US11123323B2, “Monoterpenes for treating respiratory disorders, in particular bronchopulmonary disorders” (Maria Clemetine Martin Klosterfrau Vertriebsqesellschaft MBH, priority 2008, dated 2021)
